Assay type in all cases: cell-based
The test system of test [1] is HT29 human colon carcinoma cell line. Description: MTT growth inhibition assay, single agents and fixed-ratio combinations with elsamitrucin (Chou-Talalay, CalcuSyn), HT29. The procedure: (§1) These individual agents and their combinations were evaluated for in vitro activity against the HT29 colon carcinoma, SKMES non-small cell lung carcinoma, and Daudi B-lymphoblastic cell lines. Cell growth in 96-well microculture plates was determined with a semi-automated MTT assay. Efficacies of drug combinations were analyzed according to the methods of Chou and Talalay, utilizing CalcuSyn software. Twenty-one in vitro experiments were conducted to determine the individual and combined growth inhibitory activities of elsamitrucin and the ten selected agents in the three cell lines.
(§2) b. Cell Lines. The human HT29 colon carcinoma, SKMES non-small cell lung carcinoma, and Daudi B-lymphoblastic cell lines were originally obtained from ATCC (American Type Culture Collection). These cell lines have been maintained and stored as frozen stocks. […] The medium for Daudi cells was additionally supplemented with 1 mM sodium pyruvate.
(§3) c. Growth Inhibition Assay. Anti-proliferative activities against the HT29, SKMES, and Daudi cell lines were evaluated in vitro by the MTT assay. Cells (1,500-2,000 cells/well) were seeded in a 96-well microculture plate in 180 pL of medium/well. […] DMSO was present in all wells at a final concentration of 0.1%. […] When the appropriate cell density was attained in the control wells, the plates were centrifuged briefly, and 100 pL of the growth medium was removed. The cell cultures were incubated with 50 μL of MTT reagent (1 mg/mL in Dulbecco's phosphate-buffered saline) for 4 hr at 37° C. The resultant purple formazan precipitate was solubilized with 200 μL of 0.04 N HCl in isopropanol.
(§4) The results of each experiment were stored in Excel format.
(§5) d. Preliminary Experiments: Design and Data Analysis. […] The initial experiments utilized serial three-fold dilutions of the drugs to produce ten test concentrations over a broad concentration range. Based on the initial results, a narrower concentration range was selected, and serial 1:1.5 dilutions were utilized to produce ten test concentrations. Experiments were repeated as needed.
(§6) For assays that utilized lower dilution factors to produce narrower concentration ranges, the results were analyzed with both Prism and CalcuSyn (as described below) to allow comparison of the IC50 and Da, values. The results guided the selection of appropriate concentration ranges and concentration ratios for the combination experiments.
(§7) e. Combination Experiments: Design and Data Analysis. The fixed-ratio design of Chou was used for the combination experiments. For each experiment, the drug solutions were mixed at a ratio that was expected to provide approximately equipotent concentrations, and the mixture was serially diluted with medium containing 1% DMSO to yield 10× stock solutions of the test concentrations. […] Each agent was tested individually and in combination at seven concentrations. The concentration range selected for each assay was designed to bracket the concentrations that produced half-maximal effects (ED50) with each single agent and their mixture. The concentrations used for the single-drug assays were twice as high as their concentrations in the mixture. Each assay was performed in quadruplicate. For each drug combination, the individual agents and their mixture were assayed on the same 96-well plate. The effects of the individual drugs and their combinations were analyzed by the method of Chou and Talalay. The results of each experiment were entered into CalcuSyn (BIOSOFT) for dose-effect analysis.
(§8) where Acontrol and Adrug are the respective absorbances of vehicle control and drug-treated wells in the MIT assay.
(§9) where the slope, m, is related to the sigmoidicity of the dose-effect curve, with m=1, >1, and <1 indicating hyperbolic, sigmoidal, and reverse sigmoidal shapes, respectively.

Test [2] relates to SKMES human non-small cell lung carcinoma cell line. The test is described as follows: MTT growth inhibition assay, single agents and fixed-ratio combinations with elsamitrucin (Chou-Talalay, CalcuSyn), SKMES. Conditions: for pIC50: Homo sapiens. The method, then: as §1, §2, §3, §4, §5, §6, §7, §8, §9
Test [3] relates to Daudi human lymphoma cell line. Description: MTT growth inhibition assay, single agents and fixed-ratio combinations with elsamitrucin (Chou-Talalay, CalcuSyn), Daudi. Conditions: Homo sapiens, Daudi. The procedure:
as §1, §2, §3, §4, §5, §6, §7, §8, §9

[4] abbreviates: HT29, single agent on the same plate as the combination, read-out: Dm Value, Individually, Second Agent.
Setting [5] is: Homo sapiens, HT-29, SPA-01 (HT29-e21), single agent, dilution 1:3, read-out: Prism IC50.
[6] abbreviates: Homo sapiens, HT-29, SPA-04 (HT29-e22), single agent, dilution 1:1.5, read-out: CalcuSyn Dm.
Setting [7] is: Homo sapiens, HT-29, SPA-04 (HT29-e22), single agent, dilution 1:1.5, read-out: Prism IC50.
The mark [8] stands for this setting: Homo sapiens, HT-29, SPA-10 (HT29-e24), single agent, dilution 1:1.5, read-out: CalcuSyn Dm.
[9] abbreviates: Homo sapiens, HT-29, SPA-10 (HT29-e24), single agent, dilution 1:1.5, read-out: Prism IC50.
[10] abbreviates: Homo sapiens, HT-29, average of preliminary single-agent experiments, HT29, read-out: Average IC50, Dm value.
Setting [11] is: SKMES growth inhibition, second agent alone, one value per plate (Experiment ID), read-out: Dm Value (95% Confidence Interval), Individually, Second Agent.
Where [12] appears, read: SKMES, single agent on the same plate as the combination, read-out: Dm Value, Individually, Second Agent.
The mark [13] stands for this setting: SPA-02 (SKMES-e22), single agent, dilution 1:3, read-out: Prism IC50.
The mark [14] stands for this setting: SPA-03 (SKMES-e23), single agent, dilution 1:1.5, read-out: CalcuSyn Dm.
[15] abbreviates: SPA-03 (SKMES-e23), single agent, dilution 1:1.5, read-out: Prism IC50.
Setting [16] is: SPA-09 (SKMES-e25), single agent, dilution 1:1.5, read-out: CalcuSyn Dm.
The mark [17] stands for this setting: SPA-09 (SKMES-e25), single agent, dilution 1:1.5, read-out: Prism IC50.
Setting [18] is: average of preliminary single-agent experiments, SKMES, read-out: Average IC50, Dm value.
The mark [19] stands for this setting: Daudi growth inhibition, second agent alone, one value per plate, Table 8 (Supplement), read-out: Dm Value (95% Confidence Interval), Individually, Second Agent.
[20] abbreviates: Daudi growth inhibition, second agent alone, Table 8, read-out: Dm Value (95% Confidence Interval), Individually, Second Agent.
Setting [21] is: SPA-05 (Daudi-e01), single agent, dilution 1:3, read-out: Prism IC50.
The mark [22] stands for this setting: SPA-08 (Daudi-e02), single agent, dilution 1:1.5, read-out: CalcuSyn Dm.
Setting [23] is: SPA-08 (Daudi-e02), single agent, dilution 1:1.5, read-out: Prism IC50.
The mark [24] stands for this setting: SPA-15 (Daudi-e03), single agent, dilution 1:1.5 (elsamitrucin 1:1.33), read-out: CalcuSyn Dm.
Setting [25] is: SPA-15 (Daudi-e03), single agent, dilution 1:1.5 (elsamitrucin 1:1.33), read-out: Prism IC50.
The mark [26] stands for this setting: average of preliminary single-agent experiments, read-out: Average IC50, Dm value.
Where [27] appears, read: read-out: approximate Dm values for the second drugs as single agents.

These results are taken from patent publication US20080181971A1, “Combination Cancer Treatments Comprising Elsamitrucin and Other Agents” (priority 2007, published 2008).

pIC50: −log10 of the molar value. Where two headings read alike, the source gives them in different places. Bounds are passed on as bounds.

For the compound `O=c1[nH]cc(F)c(=O)[nH]1` [5-Fluorouracil, 5-fluorouracil], the “change of Dm in the mixture versus single agent” value in test [1] (HT29) is on record as “increased only slightly”. The pIC50 in test [1] (setting [4]) is 6.10; in test [1] (setting [5]), approximately 5.48; in test [1] (setting [6]), 6.87; in test [1] (setting [7]), 6.55; in test [1] (setting [8]) it was 5.38; in test [1] (setting [9]), 5.78. In addition, the pIC50 in test [1] (setting [10]) is 5.69; in test [2] (setting [11]), 5.36; in test [2] (setting [12]), 5.36; in test [2] (setting [13]) it was 6.36; in test [2] (setting [14]), 5.28; in test [2] (setting [15]), approximately 5.48. For the same compound, the pIC50 in test [2] (setting [16]) is 5.25; in test [2] (setting [17]) it was 5.50; in test [2] (setting [18]), 5.45; in test [3] (setting [19]), 4.93; in test [3] (setting [20]), 4.93; in test [3] (setting [21]) it was approximately 5.04. Besides, the pIC50 is 4.95 in test [3] (setting [22]); 4.90 in test [3] (setting [23]); 4.88 in test [3] (setting [24]); 4.93 in test [3] (setting [25]); 4.91 in test [3] (setting [26]); approximately 4.93 in test [3] (setting [27]).
As to `CC(C)C[C@H](NC(=O)[C@H](Cc1ccccc1)NC(=O)c1cnccn1)B(O)O` [Bortezomib, bortezomib], the pIC50 in test [1] (Homo sapiens, HT-29, HT29, single agent on the same plate as the combination, read-out: Dm Value, Individually, Second Agent) was 7.75; in test [1] (setting [5]), 7.92; in test [1] (setting [6]), 7.54; in test [1] (setting [7]), 7.64; in test [1] (setting [10]), 7.68; in test [2] (setting [11]), 7.62. The pIC50 is 7.80 in test [2] (setting [12]); 7.67 in test [2] (setting [14]); 7.71 in test [2] (setting [15]); 7.68 in test [2] (setting [18]); 8.41 in test [3] (setting [19]); 8.41 in test [3] (setting [20]). Moreover, the pIC50 in test [3] (setting [21]) is 8.43; in test [3] (setting [22]), 8.47; in test [3] (setting [23]), 8.40; in test [3] (setting [26]) it was 8.40; in test [3] (setting [27]), approximately 8.41.
As for `CC[C@@]1(O)C(=O)OCc2c1cc1n(c2=O)Cc2cc3ccccc3nc2-1` [Camptothecin, camptothecin], the pIC50 is 7.80 in test [1] (setting [5]); 7.59 in test [1] (setting [6]); 7.64 in test [1] (setting [7]); 6.83 in test [1] (setting [8]); 6.26 in test [1] (setting [9]); 6.82 in test [1] (setting [10]). Further, the pIC50 in test [2] (setting [11]) was 8.10; in test [2] (setting [12]) it was 8.10; in test [2] (setting [13]) it was 8.22; in test [2] (setting [14]) it was 7.96; in test [2] (setting [15]), 7.96; in test [2] (setting [18]), 8.05. Moreover, the pIC50 in test [3] (setting [19]) was 8.03; in test [3] (setting [20]), 8.03; in test [3] (setting [21]) it was 8.07; in test [3] (setting [22]), 7.96; in test [3] (setting [23]), 8.02; in test [3] (setting [26]), 8.00. The pIC50 in test [3] (setting [27]) is approximately 8.03. Moreover, the “increase of Dm in the combination” value in test [2] (SKMES, in combination with elsamitrucin versus single agent) is given as “less than 1.5 fold”.
`O=NN(CCCl)C(=O)NCCCl` [Carmustine, carmustine]: the pIC50 is 3.89 in test [1] (setting [4]); less than 5.00 in test [1] (setting [5]); 4.22 in test [1] (setting [6]); 4.14 in test [1] (setting [7]); 4.18 in test [1] (setting [10]); 4.16 in test [2] (setting [11]). Moreover, the pIC50 in test [2] (setting [12]) is 4.16; in test [2] (setting [13]), 5.84; in test [2] (setting [16]), approximately 4.02; in test [2] (setting [17]), approximately 4.11; in test [3] (setting [20]), 4.38; in test [3] (setting [22]) it was 4.60. For the same compound, the pIC50 was 4.55 in test [3] (setting [23]); 4.59 in test [3] (setting [24]); 4.68 in test [3] (setting [25]); 4.60 in test [3] (setting [26]); approximately 4.38 in test [3] (setting [27]).
